Drawing on a melting point compilation (Tetko et al.; mined from patent text by program, amines drawn as free bases though some values may be those of a salt), this text covers melting point for 61 compounds.

As to `Cc1cc2c(cc1C(=O)Cc1ccccc1)CCC2`, the melting point (as a rule, the temperature, or range, at which the solid turns liquid) fell in the range of 126 to 127 °C.

Compound `Cc1cccc2ncc(C(=O)Nc3ccc(Cl)cc3)c(=O)n12` displayed a melting point of 202 to 204 °C.

Take `NS(=O)(=O)c1ccc(CCN2CCC(N3CCc4ccccc43)CC2)cc1`: the melting point was 207 to 210 °C.

The compound `COC1=CC(=O)C2=C(C1=O)C1C=CC2C1` (stereo unspecified) showed a melting point of 117 to 118 °C.

For the compound `Cc1cccc(C)c1OC(=O)c1ccccc1C(=O)Oc1c(C)cccc1C`, the melting point fell in the range of 174 to 176 °C.

As to `CSc1cc(SC)c(SC)cc1NC(C)=O`, the melting point fell in the range of 87 to 89 °C.

For the compound `Nc1nccc(OCc2ccccc2)c1N`, the melting point lay in the range of 135 to 136 °C.

As to `CN(Cc1cc2c3c(c1)c(=O)c(C(=O)NCc1ccc(Cl)cc1)cn3CC(=O)N2C)C[C@H](O)c1cccnc1`, the melting point lay within 125 to 127 °C.

Take `CCOC(=O)Nc1cnn(C)c1S(=O)(=O)NC(=S)NC(C)C`: the melting point was 141 to 144 °C.

Consider `O=C(CBr)c1cccn1S(=O)(=O)c1ccccc1`, for which the melting point fell in the range of 89 to 91 °C.

For the compound `O=c1c(N2CCNCC2)nccn1CCOc1cc(F)cc(F)c1`, the melting point lay within 119 to 121 °C.

`CCOc1ccc(NC=C(C#N)C(=O)Nc2cc(OC)c(Cl)cc2Cl)cc1Br`: the melting point was over 250 °C.

For the compound `COc1ccc(-c2nc(N3CCNCC3)c3c(C)c(C#N)sc3n2)cc1`, the melting point was in the range of 210 to 212 °C.

In the case of `CNCC1(C)Cc2c(C)c(N3CCN(c4ccc(OC)cc4)CC3)c(C)c(C)c2O1` (stereo unspecified), the melting point lay in the range of 107 to 113 °C.

`C=CC(=O)NCc1ccc(CBr)cc1` displayed a melting point of 167 °C.

Consider `O=c1c2c(Cl)cccc2nc(CSc2ncnc3[nH]cnc23)n1-c1ccccc1Cl`, for which the melting point stood at 234 °C.

On to `Cc1ccc(NC(=O)c2cc(Cl)ccc2NCC2CCN(C3CCCCC3)CC2)nc1`, for which the melting point is 176 to 178 °C.

`COc1ccccc1NC(=O)Nc1nc(O)ncc1F` gave a melting point of 247 to 250 °C.

On to `c1ccc2c(c1)nc(-c1ccc3c(c1)OCO3)n2Cc1ccncc1`, for which the melting point is 166 to 167 °C.

`CCCCCCCCOc1cc2cc(CO)c(CO)c(-c3ccnc(Cl)c3)c2cc1OC` gave a melting point of 98 to 102 °C.

Regarding `CN(C)Cc1nc(C=Cc2nc3ccc(F)cc3c(=O)n2-c2ccccc2F)cs1`, the melting point is 163 to 165 °C.

Compound `CN(C(=O)Nc1nc(OCC(F)(F)F)cc(OCC(F)(F)F)n1)c1ccc(CC(F)(F)F)s1` registered a melting point of 99 to 101 °C.

On to `Cn1cccc1C1=CC(=O)c2ccccc2C1=O`, for which the melting point lay within 95 to 96 °C.

Compound `CCOC(=O)C1=C(C)NC(=S)N(C(=O)OCC)C1c1cccc(OCc2ccccc2)c1` (stereo unspecified) displayed a melting point of 119 to 121 °C.

The compound `COc1ccc2nc(-c3cc(C(F)(F)F)nn3-c3ccc(S(C)(=O)=O)cc3)sc2c1` gave a melting point of 217 to 218 °C.

`CCOC(=O)C(C)(Cc1ccc(OCCN2CCCCC2)cc1)S(=O)(=O)c1ccc(OC)cc1` (stereo unspecified) yielded a melting point of 106 °C.

Regarding `CC1CC2C3CCC4=CC(=O)C=CC4(C)C3=CCC2(C)C1C(=O)CN1CCN(c2cc(NCC(C)(C)C)nc(NCC(C)(C)C)n2)CC1` (stereo unspecified), the melting point lay in the range of 140 to 150 °C.

On to `COc1ccc(C(O)CCS(=O)(=O)c2ccc(S(N)(=O)=O)s2)cc1` (stereo unspecified), for which the melting point was 129 to 130 °C.

`c1ccc(Cc2nnn[nH]2)c(COc2ccc3oc(-c4nc5c(s4)NCCCC5)cc3c2)c1` showed a melting point of 110 to 118 °C.

The compound `CCCN(c1cccc(-c2ccnc3c([N+](=O)[O-])cnn23)c1)S(=O)(=O)c1ccccc1` registered a melting point of 154 to 156 °C.

Compound `CCCCCCCCCCCN(CC)C(=O)N(O)O` gave a melting point of 42 to 43 °C.

Compound `COC(=O)CSc1nc(Oc2ccc(N3CCNCC3)cc2)ncc1[N+](=O)[O-]` showed a melting point of 193 to 195 °C.

With `CC1=C(C(=O)OCCOc2ccccc2)C(c2ccccc2C(F)(F)F)c2c(ccnc2OCC(C)C)N1` (stereo unspecified), the melting point lay in the range of 108 to 109 °C.

Compound `Cc1cc(-c2ccc(C(F)(F)F)c(C)c2)cc(-c2cccc(-c3cccc(S(N)(=O)=O)c3)n2)n1` displayed a melting point of over 250 °C.

`CC(=O)c1ccc(NS(C)(=O)=O)c(NC(=O)c2ccc(F)cc2F)c1` registered a melting point of 203 to 204 °C.

On to `CCCCOc1nc(N)c2[nH]c(=O)n(CCCNS(=O)(=O)c3cccc(CC(=O)OC)c3)c2n1`, for which the melting point is 218 to 219 °C.

`COC(=O)CCCC#Cc1cc(Cl)ccc1NS(=O)(=O)c1c(C)noc1C` came in with a melting point of 107 to 109 °C.

In turn, `CCCCCCCCCCCCCCCCCCOc1cc(C(=O)O)cc(N(CC(=O)O)CC(=O)O)c1` came in with a melting point of 149 to 155 °C.

For the compound `Cc1cc2c(s1)Nc1ccccc1N=C2N1CCN[C@@H](CO)C1`, the melting point came out at 90 °C.

The compound `CC(=O)CCC(=O)N1CC1C#N` (stereo unspecified) showed a melting point of 93 to 94 °C.

In the case of `Nc1cc(C(=O)NNC(=O)c2occ(-c3ccccc3)c2-c2ccccc2)ccc1O`, the melting point was 268 to 270 °C.

The compound `CCCCCCCCCCOCCCN=C=O` registered a melting point of 78 to 82 °C.

On to `COCCOCCOc1ccc2c(c1)S(=O)(=O)N(Cc1ccccc1)C2=O`, for which the melting point lay within 86 to 88 °C.

In turn, `CCC1c2ccccc2-c2sccc2N1S(=O)(=O)c1ccc(O)cc1` (stereo unspecified) returned a melting point of 169 to 171 °C.

Compound `COc1ccc(-n2c(=O)c3c(N4CCN(C)CC4)cc(Cl)cc3n(Cc3ccccc3)c2=O)cc1` had a melting point of 155 to 158 °C.

Regarding `COc1ccc(-n2cnc3ccc(-c4nnc(SC)o4)cc32)cc1`, the melting point was in the range of 187 to 188 °C.

Take `CN1CCN(c2cc3c(cc2F)c(=O)n(O)c(=O)n3-c2ccc(F)c(Cl)c2)CC1`: the melting point lay in the range of 197 to 199 °C.

`Cc1ccc(N=CN(C)SN(C2CCCCC2)C2CCCCC2)c(C)c1` registered a melting point of 97 to 98 °C.

The compound `Cc1c(C(=O)O)cnn1-c1nc(-c2cc(C(F)(F)F)cc(C(F)(F)F)c2)cs1` displayed a melting point of 261 °C.

On to `O=C(CCN1CCN(c2ccc3ccccc3n2)CC1)c1csc2ccccc12`, for which the melting point fell in the range of 92 to 96 °C.

Turning to `O=C(c1ccccc1)N1CCCC(c2nc(-c3ccc(F)cc3)no2)C1` (stereo unspecified), the melting point fell in the range of 82 to 83 °C.

In the case of `CCOC(=O)c1cn(C2CC2)c2c(F)c(NCCCO)c(F)cc2c1=O`, the melting point fell in the range of 160 to 162 °C.

For the compound `O=C1CCC(N2C(=O)c3cccc(CNC(=O)Nc4cccc(Cl)c4)c3C2=O)C(=O)N1` (stereo unspecified), the melting point fell in the range of 193 to 195 °C.

`Nc1nc2ccccc2c2c1ncn2CC1(O)CCCCC1`: the melting point is over 250 °C.

Regarding `Cc1nc(C(F)F)ccc1C(=O)C1=C(NS(=O)(=O)c2ccccc2)C(C)(C)C(=O)C(C)(C)C1=O`, the melting point is 130 °C.

In the case of `O=C(CBr)Nc1ccc(O)cc1C(=O)O`, the melting point was in the range of 213 to 215 °C.

In turn, `N#CCc1c(Cl)nc(-c2ccc([N+](=O)[O-])cc2)n1Cc1ccccc1` displayed a melting point of 125 to 128 °C.

`CCC1(C)CC(NC(=O)c2ccccc2)C(C)C(C)(CC)N1Cc1ccccc1` (stereo unspecified) returned a melting point of 173 to 176 °C.

`Clc1ncnc2c1ncn2C1CC=CC1` returned a melting point of 56 to 58 °C.

Regarding `[N-]=[N+]=NC1(O)CC(n2cc(Br)c(=O)[nH]c2=O)OC1CO` (stereo unspecified), the melting point lay within 148 to 149 °C.

Turning to `C[Si](C)(C)OC(Cn1ccnc1)(Cn1ccnc1)c1ccc(F)cc1F`, the melting point lay within 134 to 136 °C.
